This note sets out measurements from ChEMBL document CHEMBL5620355, “Discovery of intracellular self-assembly protein degraders driven by tumor-specific activatable bioorthogonal reaction” (Eur J Med Chem, 2023).

Data set [1] relates to U-87 MG. Kind of data set: Antiproliferative activity against human U87 cells incubated for 48 hrs by MTT assay. Type of data set: functional, cell-based, U-87MG ATCC.
For data set [2], the system named is A549. Nature of the data set: Antiproliferative activity against human A549 cells incubated for 48 hrs by MTT assay. It is filed as functional, cell-based. To be noted: A549, 48 h.
The subject of data set [3] is A549. Kind of data set: Antiproliferative activity against human A549 cells incubated for 48 hrs in presence of 4-(4-(3-(4-chloro-3-(trifluoromethyl)phenyl)ureido)phenoxy)-N-(prop-2-yn-1-yl)picolinamide by MTT assay. It is filed as functional, cell-based. To be noted: A549, 48 h.
Data set [4] relates to HEK293. Nature of the data set: Cytotoxicity against HEK293 cells incubated for 48 hrs by MTT assay. Type of data set: toxicity, cell-based. The conditions noted are these: human, hek293, 48 h. On the technique in general: Tetrazolium assays rely on reduction of a dye to a coloured formazan, in cell work by metabolically active cells.
The target of data set [5] is T1, Ephrin type-B receptor 4 (Homo sapiens) (UniProt P54760).
T1 sequence (whole entry): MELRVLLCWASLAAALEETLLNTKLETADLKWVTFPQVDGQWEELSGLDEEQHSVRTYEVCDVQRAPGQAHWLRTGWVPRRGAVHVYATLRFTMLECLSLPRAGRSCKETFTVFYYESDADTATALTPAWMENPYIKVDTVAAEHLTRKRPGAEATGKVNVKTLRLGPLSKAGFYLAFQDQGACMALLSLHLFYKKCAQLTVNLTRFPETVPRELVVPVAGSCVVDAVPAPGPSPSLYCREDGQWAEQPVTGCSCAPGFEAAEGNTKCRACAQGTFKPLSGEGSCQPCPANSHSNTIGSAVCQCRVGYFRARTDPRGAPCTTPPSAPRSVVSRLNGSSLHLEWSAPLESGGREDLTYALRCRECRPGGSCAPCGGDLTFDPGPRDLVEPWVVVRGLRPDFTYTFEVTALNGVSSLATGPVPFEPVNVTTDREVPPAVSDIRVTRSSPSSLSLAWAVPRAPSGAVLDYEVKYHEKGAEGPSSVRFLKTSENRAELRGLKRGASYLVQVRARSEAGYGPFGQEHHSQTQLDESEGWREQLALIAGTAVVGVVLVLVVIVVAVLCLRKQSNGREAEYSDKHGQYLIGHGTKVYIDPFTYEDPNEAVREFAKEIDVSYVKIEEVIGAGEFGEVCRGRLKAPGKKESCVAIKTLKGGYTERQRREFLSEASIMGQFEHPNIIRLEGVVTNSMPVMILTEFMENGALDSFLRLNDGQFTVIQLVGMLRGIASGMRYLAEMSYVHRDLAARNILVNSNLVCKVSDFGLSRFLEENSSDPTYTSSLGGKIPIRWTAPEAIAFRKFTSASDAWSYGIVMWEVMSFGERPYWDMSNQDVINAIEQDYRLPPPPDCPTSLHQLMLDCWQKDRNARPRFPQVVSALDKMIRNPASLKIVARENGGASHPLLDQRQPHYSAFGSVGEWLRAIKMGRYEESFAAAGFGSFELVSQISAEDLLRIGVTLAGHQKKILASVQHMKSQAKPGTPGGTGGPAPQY
Nature of the data set: Induction of EphB4 degradation in human U87 cells at 10 uM incubated for 48 hrs in presence of 4-(4-(3-(4-chloro-3-(trifluoromethyl)phenyl)ureido)phenoxy)-N-(prop-2-yn-1-yl)picolinamide by Western blot analysis. It is filed as cell-based. For orientation: In western blotting, separated proteins are transferred to a membrane and probed.

The subject of data set [6] is U-87 MG. Kind of data set: Induction of apoptosis in human U87 cells assessed as late apoptotic cells at 0.1 uM incubated for 48 hrs in presence of 4-(4-(3-(4-chloro-3-(trifluoromethyl)phenyl)ureido)phenoxy)-N-(prop-2-yn-1-yl)picolinamide by Annexin V-FLTC/PI staining based flow cytometry (reference value: 3.71 %). It is filed as functional, U-87MG ATCC. For orientation: Flow cytometry measures light scatter and fluorescence of single cells or particles in a stream.

The test system of data set [7] is U-87 MG. Kind of data set: Induction of apoptosis in human U87 cells assessed as viable cells at 5 uM incubated for 48 hrs in presence of 4-(4-(3-(4-chloro-3-(trifluoromethyl)phenyl)ureido)phenoxy)-N-(prop-2-yn-1-yl)picolinamide by Annexin V-FLTC/PI staining based flow cytometry (reference value: 86.74 %). The conditions noted are these: read-out: Activity. It is filed as functional, U-87MG ATCC.

Data set [8] has as its system U-87 MG. Nature of the data set: Induction of apoptosis in human U87 cells assessed as late apoptotic cells at 10 uM incubated for 48 hrs in presence of 4-(4-(3-(4-chloro-3-(trifluoromethyl)phenyl)ureido)phenoxy)-N-(prop-2-yn-1-yl)picolinamide by Annexin V-FLTC/PI staining based flow cytometry (reference value: 3.71 %). Type of data set: functional, U-87MG ATCC.
The subject of data set [9] is U-87 MG. Kind of data set: Induction of apoptosis in human U87 cells assessed as necrotic cells at 10 uM incubated for 48 hrs in presence of 4-(4-(3-(4-chloro-3-(trifluoromethyl)phenyl)ureido)phenoxy)-N-(prop-2-yn-1-yl)picolinamide by Annexin V-FLTC/PI staining based flow cytometry (reference value: 0.60 %). Type of data set: functional, U-87MG ATCC.
Data set [10] concerns U-87 MG. Kind of data set: Induction of apoptosis in human U87 cells assessed as early apoptotic cells at 20 uM incubated for 48 hrs in presence of 4-(4-(3-(4-chloro-3-(trifluoromethyl)phenyl)ureido)phenoxy)-N-(prop-2-yn-1-yl)picolinamide by Annexin V-FLTC/PI staining based flow cytometry (reference value: 8.95 %). It is filed as functional, U-87MG ATCC.
The subject of data set [11] is A549. Kind of data set: Antiproliferative activity against human A549 cells incubated for 48 hrs in presence of 4-azido-N-(2-(2,6-dioxopiperidin-3-yl)-1,3-dioxoisoindolin-4-yl)butanamide by MTT assay. To be noted: A549, 48 h. Type of data set: functional, cell-based.
Data set [12] concerns the target Platelet-derived growth factor receptor beta (Homo sapiens) (UniProt P09619). Kind of data set: Induction of PDGFR-beta degradation in human U87 cells upto 10 uM incubated for 48 hrs by Western blot analysis. Type of data set: cell-based.
Data set [13] has as its target T1, Ephrin type-B receptor 4 (Homo sapiens). Nature of the data set: Induction of EphB4 degradation in human U87 cells upto 10 uM incubated for 48 hrs by Western blot analysis. It is filed as cell-based.
The target in data set [14] is Vascular endothelial growth factor receptor 2 (Homo sapiens) (UniProt P35968). Nature of the data set: Induction of VEGFR2 degradation in human U87 cells at 10 uM incubated for 48 hrs in presence of 4-azido-N-(2-(2,6-dioxopiperidin-3-yl)-1,3-dioxoisoindolin-4-yl)butanamide by Western blot analysis. It is filed as cell-based.
In data set [15] the target is Serine/threonine-protein kinase B-raf (Homo sapiens) (UniProt P15056). Kind of data set: Induction of BRAF degradation in human U87 cells at 10 uM incubated for 48 hrs in presence of 4-azido-N-(2-(2,6-dioxopiperidin-3-yl)-1,3-dioxoisoindolin-4-yl)butanamide by Western blot analysis. Type of data set: cell-based.
The test system of data set [16] is U-87 MG. Nature of the data set: Induction of apoptosis in human U87 cells assessed as late apoptotic cells at 0.1 uM incubated for 48 hrs in presence of (2S,4R)-1-((S)-2-(5-azidopentanamido)-3,3-dimethylbutanoyl)-4-hydroxy-N-(4-(4-methylthiazol-5-yl)benzyl)pyrrolidine-2-carboxamide by Annexin V-FLTC/PI staining based flow cytometry (reference value: 3.71 %). Type of data set: functional, U-87MG ATCC.

Data set [17] relates to U-87 MG. Nature of the data set: Induction of apoptosis in human U87 cells assessed as viable cells at 5 uM incubated for 48 hrs in presence of (2S,4R)-1-((S)-2-(5-azidopentanamido)-3,3-dimethylbutanoyl)-4-hydroxy-N-(4-(4-methylthiazol-5-yl)benzyl)pyrrolidine-2-carboxamide by Annexin V-FLTC/PI staining based flow cytometry (reference value: 86.74 %). Type of data set: functional, U-87MG ATCC. The conditions noted are these: read-out: Activity.

Data set [18] deals with U-87 MG. Nature of the data set: Induction of apoptosis in human U87 cells assessed as early apoptotic cells at 20 uM incubated for 48 hrs in presence of (2S,4R)-1-((S)-2-(5-azidopentanamido)-3,3-dimethylbutanoyl)-4-hydroxy-N-(4-(4-methylthiazol-5-yl)benzyl)pyrrolidine-2-carboxamide by Annexin V-FLTC/PI staining based flow cytometry (reference value: 8.95 %). Type of data set: functional, U-87MG ATCC.

The structures appear in SMILES notation. Active and inactive are the calls of the source. No cut-off for these calls is given here. A value given as a limit tells only on which side of the number the result lay.

Chain of Platelet-derived growth factor receptor beta (Homo sapiens) (P09619 whole entry): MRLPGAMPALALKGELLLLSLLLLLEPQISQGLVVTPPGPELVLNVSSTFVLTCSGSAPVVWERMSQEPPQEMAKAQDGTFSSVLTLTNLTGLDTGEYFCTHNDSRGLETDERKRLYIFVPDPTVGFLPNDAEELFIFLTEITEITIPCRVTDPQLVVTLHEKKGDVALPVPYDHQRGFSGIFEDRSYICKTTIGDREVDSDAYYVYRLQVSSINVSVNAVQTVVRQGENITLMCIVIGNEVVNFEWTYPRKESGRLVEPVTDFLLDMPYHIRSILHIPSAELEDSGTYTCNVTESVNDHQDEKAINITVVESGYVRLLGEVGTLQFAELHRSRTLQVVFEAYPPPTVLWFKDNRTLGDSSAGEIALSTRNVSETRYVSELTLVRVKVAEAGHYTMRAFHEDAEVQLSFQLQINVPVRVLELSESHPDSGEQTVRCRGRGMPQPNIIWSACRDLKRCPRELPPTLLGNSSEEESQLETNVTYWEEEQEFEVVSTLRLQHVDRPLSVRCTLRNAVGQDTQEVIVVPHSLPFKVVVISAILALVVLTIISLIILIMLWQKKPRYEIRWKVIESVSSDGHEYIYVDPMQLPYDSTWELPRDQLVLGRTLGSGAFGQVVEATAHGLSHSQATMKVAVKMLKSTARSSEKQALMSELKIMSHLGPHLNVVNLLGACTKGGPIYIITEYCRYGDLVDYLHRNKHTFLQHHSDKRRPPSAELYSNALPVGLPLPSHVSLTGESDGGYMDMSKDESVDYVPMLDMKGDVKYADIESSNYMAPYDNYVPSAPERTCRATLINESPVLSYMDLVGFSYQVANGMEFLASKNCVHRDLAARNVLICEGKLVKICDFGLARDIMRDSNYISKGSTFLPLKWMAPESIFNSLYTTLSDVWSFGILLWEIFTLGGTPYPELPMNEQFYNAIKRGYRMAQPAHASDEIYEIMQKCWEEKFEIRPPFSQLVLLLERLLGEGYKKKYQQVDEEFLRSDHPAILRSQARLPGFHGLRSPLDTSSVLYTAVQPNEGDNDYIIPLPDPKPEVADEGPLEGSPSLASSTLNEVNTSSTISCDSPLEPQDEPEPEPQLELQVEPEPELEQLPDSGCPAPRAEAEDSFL
Chain of Vascular endothelial growth factor receptor 2 (Homo sapiens) (P35968 whole entry): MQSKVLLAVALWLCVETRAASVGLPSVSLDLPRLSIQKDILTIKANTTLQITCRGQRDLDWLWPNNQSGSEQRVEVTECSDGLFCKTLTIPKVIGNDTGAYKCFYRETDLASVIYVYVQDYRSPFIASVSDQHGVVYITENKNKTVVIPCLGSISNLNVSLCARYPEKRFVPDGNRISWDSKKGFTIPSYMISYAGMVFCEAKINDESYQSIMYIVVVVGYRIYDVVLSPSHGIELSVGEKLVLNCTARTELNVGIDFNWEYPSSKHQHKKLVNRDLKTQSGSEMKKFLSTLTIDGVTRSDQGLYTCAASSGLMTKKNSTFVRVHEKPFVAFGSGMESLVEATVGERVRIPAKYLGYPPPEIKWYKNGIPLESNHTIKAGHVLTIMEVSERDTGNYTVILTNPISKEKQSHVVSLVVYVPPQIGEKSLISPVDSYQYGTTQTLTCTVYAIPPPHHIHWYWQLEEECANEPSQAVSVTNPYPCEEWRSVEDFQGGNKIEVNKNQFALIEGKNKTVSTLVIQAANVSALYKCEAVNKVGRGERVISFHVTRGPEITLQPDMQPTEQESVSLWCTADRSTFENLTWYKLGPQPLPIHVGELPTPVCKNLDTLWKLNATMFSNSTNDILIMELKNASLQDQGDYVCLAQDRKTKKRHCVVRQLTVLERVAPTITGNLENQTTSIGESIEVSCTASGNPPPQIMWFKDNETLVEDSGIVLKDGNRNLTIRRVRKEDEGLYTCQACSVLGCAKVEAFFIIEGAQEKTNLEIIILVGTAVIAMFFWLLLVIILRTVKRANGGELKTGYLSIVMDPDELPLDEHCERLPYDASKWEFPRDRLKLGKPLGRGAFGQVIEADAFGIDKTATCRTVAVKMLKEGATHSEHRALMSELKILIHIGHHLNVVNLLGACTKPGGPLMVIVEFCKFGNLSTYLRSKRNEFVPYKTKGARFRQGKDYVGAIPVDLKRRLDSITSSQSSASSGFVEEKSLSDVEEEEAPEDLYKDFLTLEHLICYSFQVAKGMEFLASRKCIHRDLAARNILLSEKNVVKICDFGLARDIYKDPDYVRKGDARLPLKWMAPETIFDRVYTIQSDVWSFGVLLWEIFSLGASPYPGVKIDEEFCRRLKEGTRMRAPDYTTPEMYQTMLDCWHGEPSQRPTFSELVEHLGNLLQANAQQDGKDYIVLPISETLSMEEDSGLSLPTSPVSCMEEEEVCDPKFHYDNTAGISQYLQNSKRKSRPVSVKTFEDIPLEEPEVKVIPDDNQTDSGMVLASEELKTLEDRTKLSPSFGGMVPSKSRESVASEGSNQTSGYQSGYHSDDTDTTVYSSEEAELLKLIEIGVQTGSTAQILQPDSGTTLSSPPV
Chain of Serine/threonine-protein kinase B-raf (Homo sapiens) (P15056 whole entry): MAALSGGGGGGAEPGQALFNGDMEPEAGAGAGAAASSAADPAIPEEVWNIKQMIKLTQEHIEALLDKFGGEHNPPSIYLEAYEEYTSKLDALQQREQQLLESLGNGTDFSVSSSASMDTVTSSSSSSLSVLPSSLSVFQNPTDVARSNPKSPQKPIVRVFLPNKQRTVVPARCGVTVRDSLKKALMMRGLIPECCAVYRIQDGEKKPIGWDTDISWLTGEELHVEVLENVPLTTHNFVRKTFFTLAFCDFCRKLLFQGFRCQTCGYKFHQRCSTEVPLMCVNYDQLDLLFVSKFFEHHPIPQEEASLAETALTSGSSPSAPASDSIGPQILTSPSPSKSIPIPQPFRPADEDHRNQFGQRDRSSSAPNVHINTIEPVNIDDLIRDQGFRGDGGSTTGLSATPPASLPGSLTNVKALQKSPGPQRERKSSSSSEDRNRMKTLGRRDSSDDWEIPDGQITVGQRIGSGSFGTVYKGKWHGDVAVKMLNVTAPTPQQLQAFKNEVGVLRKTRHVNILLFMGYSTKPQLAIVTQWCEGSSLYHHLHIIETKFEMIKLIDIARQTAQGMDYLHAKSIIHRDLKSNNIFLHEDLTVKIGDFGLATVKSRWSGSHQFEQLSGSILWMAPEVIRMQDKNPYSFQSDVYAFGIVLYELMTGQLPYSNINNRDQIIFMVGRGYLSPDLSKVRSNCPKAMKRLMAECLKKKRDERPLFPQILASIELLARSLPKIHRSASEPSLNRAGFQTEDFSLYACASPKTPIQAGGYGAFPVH

Regarding `[N-]=[N+]=NCCCC(=O)Nc1cccc2c1C(=O)N(C1CCC(=O)NC1=O)C2=O` (stereo unspecified), the values for the IC50 in [1], in data set [2] and in data set [3] were more than 50 µM, more than 50 µM and 1.16 µM, respectively. Besides, the Activity entry in data set [4] is recorded as “Non-Toxic”; in data set [6], 3.35%; in [8], 72.58%; in [9], 25.6%; in [10] it was 4.73%. Besides, the outcome in [5] was Active. Besides, the viability at 5 µM in [7] was 1.48%.
In the case of `C#CCNC(=O)c1cc(Oc2ccc(NC(=O)Nc3ccc(Cl)c(C(F)(F)F)c3)cc2)ccn1`, the IC50 (usually the concentration that gives 50% inhibition) in data set [1] turned out to be 6.67 µM; in data set [2], 2.81 µM; in data set [11] it was 1.16 µM. The Activity entry in data set [4] was “Non-Toxic”; in data set [16] it was 3.35%; in [18] it was 4.73%. The outcome in data set [12] and in [13] was inactive. In addition, the result in data set [14] and in [15] was Active. Further, the viability at 5 µM in [17] turned out to be 1.48%.
